System: MV-4-11 cells
Assay: Gene expression microarray analysis (Affymetrix PrimeView) and GSEA
Format: cell-based, human
Parameters: RFU PODN (11730768_x_at) / Fold change /veh PODN (11730768_x_at) / RFU LINC00158 (11744669_a_at) / Fold change /veh LINC00158 (11744669_a_at) / RFU DUSP10 (11751237_a_at) / Fold change /veh DUSP10 (11751237_a_at) / RFU ID3 (11757404_x_at) / Fold change /veh ID3 (11757404_x_at) / RFU PLEKHG5 (11737974_s_at) / Fold change /veh PLEKHG5 (11737974_s_at) / RFU LRRC4B (11730491_at) / Fold change /veh LRRC4B (11730491_at) / RFU GIMAP4 (11747438_a_at) / Fold change /veh GIMAP4 (11747438_a_at) / RFU KRT8 (11758183_x_at) / Fold change /veh KRT8 (11758183_x_at) / RFU CNN1 (11734310_a_at) / Fold change /veh CNN1 (11734310_a_at) / RFU VPS37D (11726825_at) / Fold change /veh VPS37D (11726825_at) / RFU C10orf10 (11716522_x_at) / Fold change /veh C10orf10 (11716522_x_at) / RFU KIR2DL2 /// KIR2DL4 /// KIR2DL5A /// KIR2DL5B /// KIR2DS1 /// KIR2DS2 /// KIR2DS3 /// KIR2DS4 /// KIR3DL3 /// KIR3DL3 /// KIR3DS1 (11738374_at) / Fold change /veh KIR2DL2 /// KIR2DL4 /// KIR2DL5A /// KIR2DL5B /// KIR2DS1 /// KIR2DS2 /// KIR2DS3 /// KIR2DS4 /// KIR3DL3 /// KIR3DL3 /// KIR3DS1 (11738374_at) / RFU C1QL1 (11718748_at) / Fold change /veh C1QL1 (11718748_at) / RFU TMPRSS4 (11747572_a_at) / Fold change /veh TMPRSS4 (11747572_a_at) / RFU HAMP (11756126_x_at) / Fold change /veh HAMP (11756126_x_at) / RFU RNFT2 (11725882_a_at) / Fold change /veh RNFT2 (11725882_a_at) / RFU NR4A2 (11747474_a_at) / Fold change /veh NR4A2 (11747474_a_at) / RFU ABCC12 (11746883_a_at) / Fold change /veh ABCC12 (11746883_a_at) / RFU TMEM136 (11760407_x_at) / Fold change /veh TMEM136 (11760407_x_at) / RFU CLDN22 /// WWC2 (11732394_at) / Fold change /veh CLDN22 /// WWC2 (11732394_at) / RFU HLA-DPB1 (11760878_x_at) / Fold change /veh HLA-DPB1 (11760878_x_at) / RFU SPINT1 (11716480_a_at) / Fold change /veh SPINT1 (11716480_a_at) / RFU GAP43 (11754022_s_at) / Fold change /veh GAP43 (11754022_s_at) / RFU A4GNT (11735810_at) / Fold change /veh A4GNT (11735810_at) / RFU PRB3 (11715151_x_at) / Fold change /veh PRB3 (11715151_x_at) / RFU TUBB4B (11761932_at) / Fold change /veh TUBB4B (11761932_at) / RFU CAPN14 (11732068_a_at) / Fold change /veh CAPN14 (11732068_a_at) / RFU TMCC2 (11721928_a_at) / Fold change /veh TMCC2 (11721928_a_at) / RFU IRGQ (11745062_a_at) / Fold change /veh IRGQ (11745062_a_at) / RFU FAM174B (11720279_a_at) / Fold change /veh FAM174B (11720279_a_at) / RFU TMPRSS4 (11748680_a_at) / Fold change /veh TMPRSS4 (11748680_a_at) / RFU FAM212B (11763350_a_at) / Fold change /veh FAM212B (11763350_a_at) / RFU PLEKHG5 (11743358_a_at) / Fold change /veh PLEKHG5 (11743358_a_at) / RFU ZSCAN30 (11745921_a_at) / Fold change /veh ZSCAN30 (11745921_a_at) / RFU CMKLR1 (11741424_a_at) / Fold change /veh CMKLR1 (11741424_a_at) / RFU LOC101060620 /// MAPK8IP1 (11723275_at) / Fold change /veh LOC101060620 /// MAPK8IP1 (11723275_at) / RFU SPTSSB (11747773_x_at) / Fold change /veh SPTSSB (11747773_x_at) / RFU PRSS12 (11739890_at) / Fold change /veh PRSS12 (11739890_at) / RFU BIN1 (11741810_x_at) / Fold change /veh BIN1 (11741810_x_at) / RFU WNT11 (11732464_a_at) / Fold change /veh WNT11 (11732464_a_at) / RFU C10orf10 (11716521_a_at) / Fold change /veh C10orf10 (11716521_a_at) / RFU C5orf56 (11738089_at) / Fold change /veh C5orf56 (11738089_at) / RFU CYB561 (11721691_x_at) / Fold change /veh CYB561 (11721691_x_at) / RFU ANKRD19P (11752326_a_at) / Fold change /veh ANKRD19P (11752326_a_at) / RFU OR2T12 /// OR2T33 /// OR2T8 (11738714_s_at) / Fold change /veh OR2T12 /// OR2T33 /// OR2T8 (11738714_s_at) / RFU VCAN (11748164_a_at) / Fold change /veh VCAN (11748164_a_at) / RFU JSRP1 (11732532_at) / Fold change /veh JSRP1 (11732532_at) / RFU KRTAP10-11 (11738290_x_at) / Fold change /veh KRTAP10-11 (11738290_x_at) / RFU MYO3A (11730013_a_at) / Fold change /veh MYO3A (11730013_a_at) / RFU EBF3 (11725865_a_at) / Fold change /veh EBF3 (11725865_a_at) / RFU CAMK2N1 (11719241_x_at) / Fold change /veh CAMK2N1 (11719241_x_at) / RFU C5orf56 (11738088_a_at) / Fold change /veh C5orf56 (11738088_a_at) / RFU OLFML3 (11715873_a_at) / Fold change /veh OLFML3 (11715873_a_at) / RFU LOC100653217 /// NTM (11731650_a_at) / Fold change /veh LOC100653217 /// NTM (11731650_a_at) / RFU MAPK11 (11762145_a_at) / Fold change /veh MAPK11 (11762145_a_at) / RFU FIZ1 (11724087_x_at) / Fold change /veh FIZ1 (11724087_x_at) / RFU OASL (11726364_x_at) / Fold change /veh OASL (11726364_x_at) / RFU SOX15 (11748057_x_at) / Fold change /veh SOX15 (11748057_x_at) / RFU CD79A (11719716_a_at) / Fold change /veh CD79A (11719716_a_at) / RFU HIST1H1D (11736915_at) / Fold change /veh HIST1H1D (11736915_at) / RFU CASKIN2 (11723855_a_at) / Fold change /veh CASKIN2 (11723855_a_at) / RFU LOC730098 (11760151_x_at) / Fold change /veh LOC730098 (11760151_x_at) / RFU OR4N2 (11742367_at) / Fold change /veh OR4N2 (11742367_at) / RFU PRRT2 (11749266_a_at) / Fold change /veh PRRT2 (11749266_a_at) / RFU SNX32 (11753110_a_at) / Fold change /veh SNX32 (11753110_a_at) / RFU CDHR5 (11726645_a_at) / Fold change /veh CDHR5 (11726645_a_at) / RFU RCAN1 (11760418_a_at) / Fold change /veh RCAN1 (11760418_a_at) / RFU FAM167A (11723789_a_at) / Fold change /veh FAM167A (11723789_a_at) / RFU FAM26E (11764081_at) / Fold change /veh FAM26E (11764081_at) / RFU ISYNA1 (11749810_s_at) / Fold change /veh ISYNA1 (11749810_s_at) / RFU ACY1 (11761880_at) / Fold change /veh ACY1 (11761880_at) / RFU 11764098_at / Fold change /veh 11764098_at / RFU SAMD14 (11745864_x_at) / Fold change /veh SAMD14 (11745864_x_at) / RFU NPB (11741838_a_at) / Fold change /veh NPB (11741838_a_at) / RFU TMPRSS6 (11731388_a_at) / Fold change /veh TMPRSS6 (11731388_a_at) / RFU KRTAP10-2 (11738614_at) / Fold change /veh KRTAP10-2 (11738614_at) / RFU ARHGAP8 /// PRR5-ARHGAP8 (11727945_x_at) / Fold change /veh ARHGAP8 /// PRR5-ARHGAP8 (11727945_x_at) / RFU KRTAP5-7 /// NADSYN1 (11734609_at) / Fold change /veh KRTAP5-7 /// NADSYN1 (11734609_at) / RFU RASL12 (11751679_a_at) / Fold change /veh RASL12 (11751679_a_at) / RFU CDKN2B (11736163_a_at) / Fold change /veh CDKN2B (11736163_a_at) / RFU PRF1 (11729649_at) / Fold change /veh PRF1 (11729649_at) / RFU, ZNF638 /// ZNF638-IT1 / Fold change vs veh, ZNF638 /// ZNF638-IT1 / RFU, PANK3 / Fold change vs veh, PANK3 / RFU, SH3YL1 / Fold change vs veh, SH3YL1 / RFU, ZEB2 / Fold change vs veh, ZEB2 / RFU, NRIP1 / Fold change vs veh, NRIP1 / RFU, PTTG1IP / Fold change vs veh, PTTG1IP / RFU, CAPN2 / Fold change vs veh, CAPN2 / RFU, MED14 / Fold change vs veh, MED14 / RFU, SNORA58 / Fold change vs veh, SNORA58 / RFU, C1orf63 / Fold change vs veh, C1orf63 / RFU, LRRFIP1 / Fold change vs veh, LRRFIP1 / RFU, NDUFAF7 / Fold change vs veh, NDUFAF7 / RFU, SLC12A2 / Fold change vs veh, SLC12A2 / RFU, IBTK / Fold change vs veh, IBTK / RFU, ESF1 / Fold change vs veh, ESF1 / Fold change vs veh, TMEM50B / RFU, TAOK1 / Fold change vs veh, TAOK1 / RFU, ACBD3 / Fold change vs veh, ACBD3 / RFU, TMA16 / Fold change vs veh, TMA16 / RFU, RWDD3 / Fold change vs veh, RWDD3 / RFU, BCAT1 / Fold change vs veh, BCAT1 / RFU, EDEM3 / Fold change vs veh, EDEM3 / RFU, TMEM33 / Fold change vs veh, TMEM33 / RFU, WDR75 / Fold change vs veh, WDR75 / RFU, AHCTF1 / Fold change vs veh, AHCTF1 / RFU, TFRC / Fold change vs veh, TFRC / RFU, ZDHHC17 / Fold change vs veh, ZDHHC17 / RFU, NOM1 / Fold change vs veh, NOM1 / RFU, ARL8B / Fold change vs veh, ARL8B / RFU, ZBTB11 / Fold change vs veh, ZBTB11 / RFU, TAMM41 / Fold change vs veh, TAMM41 / RFU, KIAA1704 /// LOC100996395 / Fold change vs veh, KIAA1704 /// LOC100996395 / RFU, ING1 / Fold change vs veh, ING1 / RFU, TRMT61B / Fold change vs veh, TRMT61B / RFU, FUBP3 / Fold change vs veh, FUBP3 / RFU, TP53 / Fold change vs veh, TP53 / RFU, TNKS2 / Fold change vs veh, TNKS2 / RFU, ZFP14 / Fold change vs veh, ZFP14 / RFU, ACTR2 / Fold change vs veh, ACTR2 / RFU, PPP3R1 / Fold change vs veh, PPP3R1 / RFU, PIK3R1 / Fold change vs veh, PIK3R1 / RFU, HNRNPA1 / Fold change vs veh, HNRNPA1 / RFU, RNF170 / Fold change vs veh, RNF170 / RFU, ZNF28 / Fold change vs veh, ZNF28 / RFU, RNGTT / Fold change vs veh, RNGTT / RFU, OGT / Fold change vs veh, OGT / RFU, BRD1 / Fold change vs veh, BRD1 / RFU, MARS / Fold change vs veh, MARS / RFU, ZNF655 / Fold change vs veh, ZNF655 / RFU, FAHD1 / Fold change vs veh, FAHD1 / RFU, BDP1 / Fold change vs veh, BDP1 / RFU, LRRCC1 / Fold change vs veh, LRRCC1 / RFU, ARID1A / Fold change vs veh, ARID1A / RFU, ZNF146 / Fold change vs veh, ZNF146 / RFU, ZNF330 / Fold change vs veh, ZNF330 / RFU, GPN3 / Fold change vs veh, GPN3 / RFU, C9orf123 / Fold change vs veh, C9orf123 / RFU, N4BP2L2 / Fold change vs veh, N4BP2L2 / RFU, ARFIP1 / Fold change vs veh, ARFIP1 / RFU, FAM179B / Fold change vs veh, FAM179B / RFU, BCL10 / Fold change vs veh, BCL10 / RFU, UHRF1BP1L / Fold change vs veh, UHRF1BP1L / RFU, BET1 / Fold change vs veh, BET1 / RFU, CNOT2 / Fold change vs veh, CNOT2 / RFU, ZNF268 / Fold change vs veh, ZNF268 / Fold change vs veh, ZNF507 / RFU, DGCR2 / Fold change vs veh, DGCR2 / RFU, WDSUB1 / Fold change vs veh, WDSUB1 / Fold change vs veh, HSP90B1 /// MIR3652 / RFU, ADSS / Fold change vs veh, ADSS / RFU, GK / Fold change vs veh, GK / RFU, ZNF148 / Fold change vs veh, ZNF148 / RFU, TAF9 / Fold change vs veh, TAF9 / RFU, SLC1A5 / Fold change vs veh, SLC1A5 / RFU, SLMO2 / Fold change vs veh, SLMO2 / RFU, ABCC4 / Fold change vs veh, ABCC4 / RFU, LOC101060439 /// RAP1B / Fold change vs veh, LOC101060439 /// RAP1B / RFU, RFX7 / Fold change vs veh, RFX7 / RFU, GTPBP10 / Fold change vs veh, GTPBP10 / RFU, CNEP1R1 / Fold change vs veh, CNEP1R1 / RFU, BIVM-ERCC5 /// ERCC5 / Fold change vs veh, BIVM-ERCC5 /// ERCC5 / RFU, ILF3 / Fold change vs veh, ILF3 / RFU 11762660_at / Fold change /veh 11762660_at / RFU VCAN (11757783_s_at) / Fold change /veh VCAN (11757783_s_at) / RFU DDX43 (11728927_at) / Fold change /veh DDX43 (11728927_at) / RFU KRT8 (11758188_x_at) / Fold change /veh KRT8 (11758188_x_at) / RFU NKD1 (11759106_at) / Fold change /veh NKD1 (11759106_at) / RFU SRD5A1 (11742802_a_at) / Fold change /veh SRD5A1 (11742802_a_at) / RFU TPSAB1 /// TPSB2 (11721975_s_at) / Fold change /veh TPSAB1 /// TPSB2 (11721975_s_at) / RFU GSTM3 (11746129_a_at) / Fold change /veh GSTM3 (11746129_a_at) / RFU IL23R (11737362_x_at) / Fold change /veh IL23R (11737362_x_at) / RFU TMEM51 (11727254_a_at) / Fold change /veh TMEM51 (11727254_a_at) / RFU PIWIL2 (11732686_x_at) / Fold change /veh PIWIL2 (11732686_x_at) / RFU ORM1 (11744905_x_at) / Fold change /veh ORM1 (11744905_x_at) / RFU CCDC152 (11743942_at) / Fold change /veh CCDC152 (11743942_at) / RFU ECM1 (11717891_a_at) / Fold change /veh ECM1 (11717891_a_at) / RFU IL23R (11748794_a_at) / Fold change /veh IL23R (11748794_a_at) / RFU TNFAIP8L3 (11732012_x_at) / Fold change /veh TNFAIP8L3 (11732012_x_at) / RFU MBOAT4 (11741988_at) / Fold change /veh MBOAT4 (11741988_at) / RFU 11764193_at / Fold change /veh 11764193_at / RFU TMEM53 (11763286_at) / Fold change /veh TMEM53 (11763286_at) / RFU MAGEB2 (11727129_at) / Fold change /veh MAGEB2 (11727129_at) / RFU TMEM200A (11744735_a_at) / Fold change /veh TMEM200A (11744735_a_at) / RFU CCDC152 (11751479_a_at) / Fold change /veh CCDC152 (11751479_a_at) / RFU FAM211A (11726209_a_at) / Fold change /veh FAM211A (11726209_a_at) / RFU RGS16 (11746705_a_at) / Fold change /veh RGS16 (11746705_a_at) / RFU VCAN (11755009_s_at) / Fold change /veh VCAN (11755009_s_at) / RFU RHOB (11743442_s_at) / Fold change /veh RHOB (11743442_s_at) / RFU RGS16 (11720943_a_at) / Fold change /veh RGS16 (11720943_a_at) / RFU RGS16 (11720944_at) / Fold change /veh RGS16 (11720944_at) / RFU, VPS4B / Fold change vs veh, VPS4B / RFU, CREB1 / Fold change vs veh, CREB1 / RFU, DNAJC13 / Fold change vs veh, DNAJC13 / RFU, GNAQ / Fold change vs veh, GNAQ / RFU, CDK5R1 / Fold change vs veh, CDK5R1 / RFU, ZRANB3 / Fold change vs veh, ZRANB3 / RFU, CUL4A / Fold change vs veh, CUL4A / RFU, CCNY / Fold change vs veh, CCNY / RFU, UFL1 / Fold change vs veh, UFL1 / RFU, COG3 / Fold change vs veh, COG3 / RFU, DIAPH2 / Fold change vs veh, DIAPH2 / RFU, SKA2 / Fold change vs veh, SKA2 / RFU, AFF3 / Fold change vs veh, AFF3 / RFU, LMF1 / Fold change vs veh, LMF1 / RFU, IPO11 / Fold change vs veh, IPO11 / RFU, DFFB / Fold change vs veh, DFFB / RFU, FOXP1 / Fold change vs veh, FOXP1 / RFU, CARD8 / Fold change vs veh, CARD8 / RFU, STRN3 / Fold change vs veh, STRN3 / RFU, ADK / Fold change vs veh, ADK / RFU, RASSF2 / Fold change vs veh, RASSF2 / RFU, WIPF1 / Fold change vs veh, WIPF1 / RFU, LARP1B / Fold change vs veh, LARP1B / RFU, RASA1 / Fold change vs veh, RASA1 / RFU, RB1 / Fold change vs veh, RB1 / RFU, PPFIA1 / Fold change vs veh, PPFIA1 / RFU, MAT2A / Fold change vs veh, MAT2A / RFU, CCT5 / Fold change vs veh, CCT5 / RFU, WDR92 / Fold change vs veh, WDR92 / RFU, CUX1 / Fold change vs veh, CUX1 / RFU, TTC7A / Fold change vs veh, TTC7A / RFU, TMEM135 / Fold change vs veh, TMEM135 / RFU, DEPTOR / Fold change vs veh, DEPTOR / RFU, CPM / Fold change vs veh, CPM / RFU, DNAJB6 / Fold change vs veh, DNAJB6 / RFU, CACNA2D3 / Fold change vs veh, CACNA2D3 / RFU, DTX4 / Fold change vs veh, DTX4 / RFU, TFCP2 / Fold change vs veh, TFCP2 / RFU, GMCL1 /// GMCL1P1 / Fold change vs veh, GMCL1 /// GMCL1P1 / RFU, AEBP2 / Fold change vs veh, AEBP2 / RFU, SNHG1 /// SNORD22 /// SNORD25 /// SNORD26 /// SNORD27 /// SNORD28 /// SNORD29 /// SNORD31 / Fold change vs veh, SNHG1 /// SNORD22 /// SNORD25 /// SNORD26 /// SNORD27 /// SNORD28 /// SNORD29 /// SNORD31 / Fold change (Aza/veh), C12orf56 (ProbeSet 11735607_a_at) / Fold change (ACY-1035/veh), C12orf56 (ProbeSet 11735607_a_at) / Fold change (Aza/veh), FGFR1OP (ProbeSet 11751329_s_at) / Fold change (ACY-1035/veh), FGFR1OP (ProbeSet 11751329_s_at) / Fold change (Aza/veh), VPS36 (ProbeSet 11739960_a_at) / Fold change (ACY-1035/veh), VPS36 (ProbeSet 11739960_a_at) / RFU SYPL1 (11715823_x_at) / Fold change /veh SYPL1 (11715823_x_at) / RFU IGFBP7 (11715501_s_at) / Fold change /veh IGFBP7 (11715501_s_at) / RFU REEP3 (11722064_at) / Fold change /veh REEP3 (11722064_at) / RFU IGLL1 (11728026_x_at) / Fold change /veh IGLL1 (11728026_x_at): dose or concentration left out as unconfirmed
Settings: ProbeSet 11758397_s_at; LIST B

Structure (SMILES): Nc1ncn([C@@H]2O[C@H](CO)[C@@H](O)[C@H]2O)c(=O)n1 [azacitidine]
- RFU, RNF170: 159.42 RFU

Reference: PMC5218480 (PLoS ONE, 2017)
